Measured values as given in patent US11737999B2, “Amino acid compositions and methods for the treatment of post-acute sequelae of COVID-19” (AXCELLA HEALTH INC., priority 2021, dated 2023).

Tests used:
IL-6 [1] = test: IL-6 cytokine secretion in primary human hepatic stellate cells stimulated with TNFα; assay type: cell-based; details: for Fold Change IL-6 Secretion Normalized Per Cell: Isoleucine 66 μM (plasma level, reference)
IL-6 [2] = test: LPS-induced IL-6 secretion in primary human monocyte-derived macrophages; details: for IL-6 Measurements, Mean: LPS, baseline subtracted values
MCP1/CCL2 = MCP1/CCL2 secretion by ELISA in primary human hepatocytes with FFA + TNFα; assay type: cell-based
MCP-1 = MCP-1 chemokine secretion in primary human hepatic stellate cells stimulated with TNFα; assay type: cell-based
Col1a1 = Col1a1 gene expression (RT-qPCR) in primary human hepatic stellate cells stimulated with TGFβ1; assay type: cell-based; details: for Col1a1 Fold Expression Relative to Control, Mean: single amino acid
TNF-α = test: LPS-induced TNF-α secretion in primary human monocyte-derived macrophages; details: for TNF-α Measurements Mean (baseline subtracted): 0.15 ng/mL LPS
Procollagen Iα1 = Procollagen Iα1 secretion (ELISA) in primary human hepatic stellate cells stimulated with TGFβ1; assay type: cell-based; details: for Procollagen lα1 Secretion (Fold Change of 1X), Mean: first donor; for Procollagen lα1 Secretion (Fold Change of 1X), Mean / Procollagen Iα1 Secretion, Mean: single amino acid
[3] = Donor 1, Conc. 66 μM (baseline)
[4] = hepatic stellate cells, three donors

CC[C@H](C)[C@H](N)C(=O)O [Isoleucine, L-Isoleucine]
Fold Change IL-6 Secretion Normalized Per Cell (IL-6 [1]; donor 1): 1.0000 fold change | Fold Change IL-6 Secretion Normalized Per Cell (IL-6 [1]; donor 2): 1.0000 fold change | IL-6 secretion (summary in words) (IL-6 [1]; hepatic stellate cells, two donors): no significant effect on IL-6 secretion | IL-6 Measurements, Mean (IL-6 [2]; [3]): 0 | IL-6 Measurements, Mean (IL-6 [2]; Donor 2, Conc. 1328 μM): −2.318 | IL-6 Measurements, Mean (IL-6 [2]; Donor 2, Conc. 3320 μM): 2.305 | IL-6 Measurements, Mean (IL-6 [2]; Donor 2, Conc. 6639 μM): −1.774 | IL-6 Measurements Mean (baseline subtracted) (IL-6 [2]; Donor 3, Conc. 3320 μM, 0.15 ng/mL LPS): 0 | MCP1 expression relative to Control, Mean (MCP1/CCL2; Donor 1, Conc. 66 μM): −1.2E−15 | MCP1 expression relative to Control, Mean (MCP1/CCL2; Donor 1, Conc. 1328 μM): −0.3073 | MCP1 expression relative to Control, Mean (MCP1/CCL2; Donor 1, Conc. 3320 μM): −2.417 | MCP1 expression relative to Control, Mean (MCP1/CCL2; Donor 1, Conc. 6639 μM): −0.205 | MCP1 expression relative to Control, Mean (MCP1/CCL2; Donor 2, Conc. 66 μM): 0 | MCP1 expression relative to Control, Mean (MCP1/CCL2; Donor 2, Conc. 1328 μM): 26.62 | MCP1 expression relative to Control, Mean (MCP1/CCL2; Donor 2, Conc. 3320 μM): −5.645 | MCP1 expression relative to Control, Mean (MCP1/CCL2; Donor 2, Conc. 6639 μM): 18.62 | MCP1/CCL2 secretion (summary in words) (MCP1/CCL2; primary human hepatocytes, two healthy donors): did not have an effect on MCP1/CCL2 secretion | Fold Change MCP1 Secretion Normalized Per Cell, Mean (MCP-1; donor 3, Conc. 66 μM): 1.0000 Fold Change | Fold Change MCP1 Secretion Normalized Per Cell (MCP-1; donor 4, Isoleucine 66 μM (plasma level, reference)): 1.0000 fold change | Col1a1 Fold Expression Relative to Control, Mean (Col1a1; first donor, 3320 μM): 1.10 fold | Col1a1 gene expression (summary in words) (Col1a1; [4]): did not significantly change Col1a1 gene expression in any donor | Col1a1 Fold Expression Relative to Control, Mean (Col1a1; second donor (Table 27), 66 μM (baseline)): 1.00 fold | Col1a1 Fold Expression Relative to Control, Mean (Col1a1; second donor (Table 27), 1328 μM): 0.97 fold | Col1a1 Fold Expression Relative to Control, Mean (Col1a1; second donor (Table 27), 3320 μM): 0.99 fold | Col1a1 Fold Expression Relative to Control, Mean (Col1a1; second donor (Table 27), 6639 μM): 1.03 fold | Col1a1 Fold Expression Relative to Control, Mean (Col1a1; second donor (Table 29), 1328 μM): 0.94 fold | Col1a1 Fold Expression Relative to Control, Mean (Col1a1; second donor (Table 29), 3320 μM): 0.94 fold | Col1a1 Fold Expression Relative to Control, Mean (Col1a1; second donor (Table 29), 6639 μM): 1.03 fold | TNF-α Measurements Mean (baseline subtracted) (TNF-α; [3]): 0 | TNF-α Measurements Mean (baseline subtracted) (TNF-α; Donor 1, Conc. 1328 μM): −42.68 | TNF-α Measurements Mean (baseline subtracted) (TNF-α; Donor 1, Conc. 3320 μM): −96.3 | TNF-α Measurements Mean (baseline subtracted) (TNF-α; Donor 1, Conc. 6639 μM): −40.95 | LPS-induced TNF-α secretion (summary in words) (TNF-α; Donor 2): increased TNF-α secretion | TNF-α Measurements Mean (baseline subtracted) (TNF-α; Donor 2, Conc. 66 μM (baseline)): 4.74E−15 | TNF-α Measurements Mean (baseline subtracted) (TNF-α; Donor 2, Conc. 1328 μM): 2.919 | TNF-α Measurements Mean (baseline subtracted) (TNF-α; Donor 2, Conc. 3320 μM): 10.26 | TNF-α Measurements Mean (baseline subtracted) (TNF-α; Donor 2, Conc. 6639 μM): 19.26 | TNF-α Measurements Mean (baseline subtracted) (TNF-α; Donor 3, Conc. 66 μM (baseline)): −2.4E−15 | TNF-α Measurements Mean (baseline subtracted) (TNF-α; Donor 3, Conc. 1328 μM): −6.23 | TNF-α Measurements Mean (baseline subtracted) (TNF-α; Donor 3, Conc. 3320 μM): 3.309 | TNF-α Measurements Mean (baseline subtracted) (TNF-α; Donor 3, Conc. 6639 μM): −1.66 | Procollagen lα1 Secretion (Fold Change of 1X), Mean (Procollagen Iα1; 1328 μM): 0.9229 fold | Procollagen lα1 Secretion (Fold Change of 1X), Mean (Procollagen Iα1; 3320 μM): 1.1366 fold | Procollagen lα1 Secretion (Fold Change of 1X), Mean (Procollagen Iα1; 6639 μM): 1.2144 fold | procollagen Iα1 secretion (summary in words) (Procollagen Iα1; [4]): significantly increased procollagen Iα1 secretion in two of three donors | Procollagen Iα1 Secretion, Mean (Procollagen Iα1; second donor, Conc. 66 μM (baseline)): 1.0000 Fold Change of 1× | Procollagen Iα1 Secretion, Mean (Procollagen Iα1; second donor, Conc. 1328 μM): 1.4811 Fold Change of 1× | Procollagen Iα1 Secretion, Mean (Procollagen Iα1; second donor, Conc. 3320 μM): 1.4940 Fold Change of 1× | Procollagen Iα1 Secretion, Mean (Procollagen Iα1; second donor, Conc. 6639 μM): 1.5423 Fold Change of 1× | Procollagen Iα1 Secretion, Mean (Procollagen Iα1; third donor, Conc. 66 μM (baseline)): 1.0000 Fold Change of 1× | Procollagen Iα1 Secretion, Mean (Procollagen Iα1; third donor, Conc. 1328 μM): 1.2687 Fold Change of 1× | Procollagen Iα1 Secretion, Mean (Procollagen Iα1; third donor, Conc. 3320 μM): 1.2703 Fold Change of 1× | Procollagen Iα1 Secretion, Mean (Procollagen Iα1; third donor, Conc. 6639 μM): 1.4465 Fold Change of 1×
